Patent US20040132079A1, “Assays relating to Toll-like receptor activity” (3M Innovative Properties Company, priority 2002, published 2004)

Target: T1, human TLR6 (Homo sapiens, UniProt Q9Y2C9)
T1 construct: expressed in transfected cells; host or cells: Namalwa cells (ATCC CRL-1432), co-transfected with pIFN-α1-luc and pCI-TLR6, G418-selected
T1 sequence (Q9Y2C9 32-796): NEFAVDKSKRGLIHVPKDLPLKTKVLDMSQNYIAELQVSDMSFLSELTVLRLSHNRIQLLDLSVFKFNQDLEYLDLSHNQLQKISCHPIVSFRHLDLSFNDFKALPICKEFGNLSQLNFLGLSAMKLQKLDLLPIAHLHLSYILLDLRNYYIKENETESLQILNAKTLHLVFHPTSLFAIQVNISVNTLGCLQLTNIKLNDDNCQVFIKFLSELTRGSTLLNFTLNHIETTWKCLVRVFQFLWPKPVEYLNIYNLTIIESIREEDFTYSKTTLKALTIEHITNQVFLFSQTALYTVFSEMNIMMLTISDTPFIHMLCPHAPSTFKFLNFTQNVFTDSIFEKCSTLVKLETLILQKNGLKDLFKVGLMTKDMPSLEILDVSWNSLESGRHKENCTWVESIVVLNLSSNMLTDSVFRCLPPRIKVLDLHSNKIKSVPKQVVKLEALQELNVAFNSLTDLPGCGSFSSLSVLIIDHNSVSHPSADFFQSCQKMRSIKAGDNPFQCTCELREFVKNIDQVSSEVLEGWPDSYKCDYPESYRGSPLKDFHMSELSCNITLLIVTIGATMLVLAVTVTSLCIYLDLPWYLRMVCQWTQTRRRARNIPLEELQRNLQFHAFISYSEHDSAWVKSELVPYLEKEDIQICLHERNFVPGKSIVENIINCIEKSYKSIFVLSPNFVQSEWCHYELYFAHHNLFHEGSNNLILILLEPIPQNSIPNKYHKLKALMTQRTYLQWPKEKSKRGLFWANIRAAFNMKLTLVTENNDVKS
Test: Luciferase induction off of the IFN-α1 promoter in pIFN-α1-luc/pCI-TLR6 co-transfected Namalwa cells
Format: cell-based
Details: IRM compound 10 μM, 18 hours, compared to DMSO negative control, representative experiment
From the text: The vector pIFN-α1-luc was constructed by inserting BglII sites at both ends of the human IFN-α1 promoter (SEQ ID NO:21). The BglII sites were inserted into the IFN-α1 promoter and the sequence was amplified using the primer pair of SEQ ID NO:22 and SEQ ID NO:23. The amplified IFN-α1 promoter was cloned into the pGL3-Enhancing vector (Promega Corp., Madison, Wis.) at the BglII site.
The vector pCI-TLR6 was constructed by inserting SEQ ID NO:11 (GenBank Accession No. NM 006068), which includes the human TLR6 coding sequence, into the pCI-neo mammalian expression vector (Promega Corp.) at the vector's NheI and MluI restriction sites.
Burkitt's Lymphoma lymphoblastoid Namalwa cells (ATCC Accession No. CRL-1432) were grown by incubation in culture medium overnight. Cells were harvested by centrifugation in a tabletop centrifuge (1200 RPM for 5 minutes), and then resuspended in phosphate buffered sucrose to a concentration of 1.3×10^7 cells per milliliter.
For each transfection, a 750 μL aliquot of the cell suspension was placed in an electroporation cuvette with 4 mm gaps. 10 μg of the pIFN-α1-luc vector and 10 μg of the pCI-TLR6 vector were added to the electroporation cuvette. The cell and vector mixtures were incubated at room temperature for 5 minutes. The cells were electroporated using a BioRad Gene Pulser (BioRad Laboratories, Hercules, Calif.) set to at 500 μF capacitance and […], then incubated at room temperature for 5 minutes.
The electroporated cells were suspended in 10 mLs of culture medium and incubated overnight. Dead cells and debris were removed after 24 hours using a MACS Dead Cell Removal kit (Miltenyi Biotec, Auburn, Calif.). Cells were resuspended in 10 mLs of culture medium and incubated for an additional 24 hours.
Transfected cells were selected by adding G418 (Promega Corp., Madison, Wis.) to a final concentration of 1 mg/mL and incubating the cells for seven days.
The selected transfected cells were counted and resuspended to a concentration of 1×10^6 cell per mL in culture medium. 100 μl aliquots of cells were placed in the wells of a white-walled, white-bottomed 96-well plate (Corning, Inc. Corning, N.Y.). 1.0 μL of an IRM compound from Table 1 (prepared at 1 mM in 100% DMSO) was added to some cell aliquots so that the final concentration of IRM compound was 10 μM. As a positive control, some cell aliquots were incubated with Sendai virus instead of IRM compound. As a negative control, some cell aliquots were incubated with DMSO without IRM compound. In all cases, the cells were incubated for 18 hours.
The plates were equilibrated to room temperature before 1 volume of reconstituted LucLight Plus (Packard Instruments, Meriden, Conn.) was added to each aliquot of cells. Each well of the plate was read on an LJL Analyst (LJL Biosystems, Inc., Sunnyvale, Calif.) set with a 5 minute dark adapt. The data are expressed as the fold increase in luciferase induction off of the IFN-α1 promoter in cell aliquots incubated with the indicated stimulant compared to the negative control in which the cell aliquots were incubated with only DMSO.

Compound: CCOCc1nc2c(N)nc3c(c2n1CC(C)(C)O)CCCC3 [IRM1, 4-amino-2-ethoxymethyl-α,α-dimethyl-6,7,8,9-tetrahydro-1H-imidazo[4,5-c]quinoline-1-ethanol]
- Fold Increase in Luciferase Induction: 3.6 fold

Compound: Cc1nc2c(N)nc3ccccc3c2n1CC(C)(C)O [IRM2, 4-amino-α,α,2-trimethyl-1H-imidazo[4,5-c]quinoline-1-ethanol]
- Fold Increase in Luciferase Induction: 2.7 fold

Compound: CCCCc1nc2c(N)nc3ccccc3c2n1CCCCNS(C)(=O)=O [IRM3, N-[4-(4-amino-2-butyl-1H-imidazo[4,5-c]quinolin-1-yl)butyl]methanesulfonamide]
- Fold Increase in Luciferase Induction: 2.6 fold

Compound: Nc1nc2ccccc2c2c1ncn2CCOCCCc1cccnc1 [IRM4, 1-{2-[3-(3-pyridyl)-propoxy]ethyl}-1H-imidazo[4,5-c]quinolin-4-amine]
- Fold Increase in Luciferase Induction: 4.0 fold

Compound: CCCCc1nc2c(N)nc3cccnc3c2n1CC(C)C [IRM5, 2-butyl-1-(2-methylpropyl)-1H-imidazo[4,5-c][1,5]naphthyridin-4-amine]
- Fold Increase in Luciferase Induction: 3.2 fold

Compound: CCCCc1nc2c(N)nc3c(c2n1CC(C)C)NCCC3 [IRM6, 2-butyl-6,7,8,9-tetrahydro-1-(2-methylpropyl)-1H-imidazo[4,5-c][1,5]naphthyridin-4-amine]
- Fold Increase in Luciferase Induction: 2.9 fold

Compound: COCCc1nc2c(N)nc3ccccc3c2n1CCCCNC(=O)c1ccc(-n2cccc2)nc1 [IRM7, N^3-{4-[4-amino-2-(2-methoxyethyl)-1H-imidazo[4,5-c]quinolin-1-yl]butyl}-6-(1H-1-pyrrolyl)nicotinamide]
- Fold Increase in Luciferase Induction: 3.2 fold

Compound: CCc1nc2c(N)nc3ccccc3c2n1CCCCCS(C)(=O)=O [IRM8, 2-ethyl-1-[5-(methylsulfonyl)-pentyl]-1H-imidazo[4,5-c]quinolin-4-amine]
- Fold Increase in Luciferase Induction: 2.3 fold
